Measured values from patent US20240408057A1, “Composition for preventing or treating cachexia and muscle loss” (METAFINES.CO.LTD., priority 2023, published 2024).
Where two headings read alike, the source gives them in different places.

Legend:
MuRF1 [1] = experiment: MuRF1 expression (Western blot) in CCM-treated C2C12 myotubes; format: cell-based, mouse; conditions: 72 hours, compared to other experimental groups (components alone and in combination)
Experimental: (§1) A C2C12 cell line was dispensed into a 6-well plate at 4.0×10^5 cells/well, and then cultured in DMEM medium containing 10% fetal bovine serum (FBS) under 37° C. and 5% CO2 conditions for one day. When the cell density reached about 80%, the medium was replaced with a differentiation medium and the cells were cultured for additional 3 days. After confirming completion of differentiation of the cells, the cells were treated with a mixture, in which the differentiation medium and cancer-cell conditioned medium (CCM) were mixed at a 1:1 ratio, to form a control group, and simultaneously, a test group was set up by treating with the calcium salts of Preparation Examples 1 to 3 according to three predetermined concentrations.
(§2) A C2C12 cell line was dispensed into a 6-well plate at 4.0×10^5 cells/well, and then cultured in DMEM medium containing 10% fetal bovine serum (FBS) under 37° C. and 5% CO2 conditions for one day. When the cell density reached about 80%, the medium was replaced with a differentiation medium and the cells were cultured for additional 3 days.

Rotarod-treadmill test = format: in vivo, Balb/c mice; conditions: CT26 Balb/c cachexia model; G6 IV 200 mpk
Experimental: After the animal was carefully placed on a Rotarod-treadmill (JD-A-07RA5, B.S Technolab Inc., Korea), and the measurement was made for 300 seconds while increasing the rotation speed from 4 rpm to 40 rpm at regular intervals and, and the results are summarized in FIG. 53A.

C2C12 myotube cells = experiment: Myotube diameter (crystal violet, Image J) of CCM-treated C2C12 myotubes; format: cell-based, mouse; conditions: C2C12 myotubes + CCM 1:1, 72 hours
Experimental: A C2C12 cell line was dispensed into a 6-well plate at 4.0×10^5 cells/well, and then cultured in DMEM medium containing 10% fetal bovine serum (FBS) under 37° C. and 5% CO2 conditions for one day. When the cell density reached about 80%, the medium was replaced with a differentiation medium and the cells were cultured for additional 3 days. […] The myotube diameter was measured using Image J from the above image, and the change in myotube cell diameter is summarized in FIG. 17B. A C2C12 cell line was dispensed into a 6-well plate at 4.0×10^5 cells/well, and then cultured in DMEM medium containing 10% fetal bovine serum (FBS) under 37° C. and 5% CO2 conditions for one day. When the cell density reached about 80%, the medium was replaced with a differentiation medium and the cells were cultured for additional 3 days. […] The myotube diameter was measured using Image J from the above images, and the changes in myotube cell diameter are summarized in FIG. 24B.

IL-1β = IL-1β in mouse blood, CT26 cachexia model; format: in vivo, Balb/c mice; conditions: CT26 Balb/c cachexia model, 21 days; G4 PO 200 mpk, G5 IV 100 mpk, G6 IV 200 mpk; vs vehicle control G2
Experimental: The mice were sacrificed, and IL-1β and lactate were analyzed using the blood serum collected at autopsy, and the results are summarized in FIGS. 48A and 48B.
In FIG. 48, each group represents the following.

[2] = tested on: skeletal muscle (gastrocnemius, quadriceps, and soleus); conditions: CT26 Balb/c cachexia model, 21 days
Experimental: A CT26 mouse colorectal cancer cell line was subcutaneously transplanted into Balb/c mice to construct a syngeneic model, and the calcium salt (Asc-Ca-DCA) of Preparation
Example 1 was administered to the mice for a total of 21 days. The mice were sacrificed, and three types of skeletal muscle (gastrocnemius, quadriceps, and soleus) were extracted at autopsy, and histopathological analysis was performed. Cross-sectional images of muscle tissue were obtained, and the muscle fiber cross-sectional area (CSA) was measured, and the results are summarized in FIGS. 50 to 52.
In FIGS. 50 to 52, each group represents the following. […] Scale bars inserted in A to F of FIGS. 50 to 52 represent a horizontal length of 100 μm.

MuRF1 [3] = experiment: MuRF1 expression in mouse muscle tissue, CT26 cachexia model; format: in vivo, Balb/c mice; conditions: CT26 Balb/c cachexia model, 21 days; G4 PO 200 mpk, G5 IV 100 mpk, G6 IV 200 mpk; vs vehicle control G2
PDK-4 [4] = experiment: PDK-4 expression (Western blot) in CCM-treated C2C12 myotubes; format: cell-based, mouse
Experimental: as §2, with “C2C12” for “A C2C12”, “cells/well” for “cells/well,”, “and” for “and then”, “days. […] After culturing for 72 hours, the cells were collected and analyzed for PDK-4, which is a target marker, by Western blot and the results are summarized in FIG. 6.” for “days.”
as §2
Subsequently, MuRF1, Atrogin1, MyHC, Myogenin (muscle markers) and Calpain 3, PDK-4, and GDF-15 (other target markers for muscle related disease) were analyzed using Western blot, and the relative expression levels for the markers are shown in FIGS. 26 and 28.

PDK-4 [5] = conditions: CT26 Balb/c cachexia model, 21 days
From the text: The mice were sacrificed, and the skeletal muscle in the quadriceps was extracted during autopsy, and tissue was homogenized, and proteins were extracted through RIPA lysis buffer, followed by Western blot analysis.
In FIG. 47, each group represents the following.

GDF-15 = GDF-15 expression (Western blot) in CCM-treated C2C12 myotubes; format: cell-based, mouse; conditions: C2C12 myotubes + CCM, 72 hours; comparison experiment with components alone and in combination
Experimental: as §2, with “C2C12” for “A C2C12”, “cells/well” for “cells/well,”, “and” for “and then”, “days. […] After culturing for 72 hours, the cells were collected and analyzed for PDK-4, which is a target marker, by Western blot and the results are summarized in FIG. 6.” for “days.”
The analysis was performed in the same manner as in Experimental Example 4-1 except for analyzing GDF-15 as a target marker for a Western blot, and the results are summarized in FIGS. 8 and 9.
The analysis was performed in the same manner as in Experimental Example 3-1 except for analyzing PDK-4 as a target marker for Western blot, and the results are summarized in FIGS. 10 and 11.
as §2

Myogenin = Myogenin expression (Western blot) in CCM-treated C2C12 myotubes; format: cell-based, mouse; conditions: 72 hours, compared to other experimental groups (components alone and in combination)
Experimental: as §1, §2

Atrogin1 [6] = experiment: Atrogin1 expression (Western blot) in CCM-treated C2C12 myotubes; format: cell-based, mouse; conditions: 72 hours, compared to other experimental groups (components alone and in combination)
Experimental: as §1, §2

Atrogin1 [7] = experiment: Atrogin1 expression in mouse muscle tissue, CT26 cachexia model; format: in vivo, Balb/c mice; conditions: CT26 Balb/c cachexia model, 21 days
[8] = G4 PO 200 mpk, G5 IV 100 mpk, G6 IV 200 mpk, vs vehicle control G2
[9] = G4 to G6, compared to G3 megestrol 125 mpk

O=C([O-])C(Cl)Cl.O=C1OC(C(O)CO)C([O-])=C1O.[Ca+2] (centres unmarked) [Preparation Example 1, calcium salts of ascorbic acid and dichloroacetic acid]
expression of MuRF1 (MuRF1 [1]): excellent effect of inhibiting the increase of expression
Rotarod-treadmill test improvement compared to G2 (Rotarod-treadmill test): about 24%
diameter of myotube cells (C2C12 myotube cells; predetermined concentration, compared to CCM): increased the diameter up to a level similar to that of the normal control group (UCM)
concentration from which the diameter reduction of myotubes was significantly inhibited (C2C12 myotube cells; three predetermined concentrations): ≥ 10 µM
IL-1β in blood serum (IL-1β): decrease in the expression levels
cross-sectional area of muscle tissue (gastrocnemius, quadriceps, soleus) [2, 8]: increased the cross-sectional area
cross-sectional area of muscle tissue (gastrocnemius, quadriceps, soleus) [2, 9]: level similar
expression level of MuRF1 in quadriceps (MuRF1 [3]): decrease in the expression levels
expression of PDK-4 (PDK-4 [4]; C2C12 myotubes + CCM, 72 hours, comparison experiment with components alone and in combination): inhibited
expression level of PDK-4 (PDK-4 [4]; C2C12 myotubes, differentiation medium:CCM 1:1, 72 hours, three predetermined concentrations, vs CCM control): expression was inhibited
expression level of PDK-4 in quadriceps (PDK-4 [5]; [8]): decrease in the expression level
expression level of PDK-4 in quadriceps (PDK-4 [5]; [9]): excellent effect of reducing the expression level
expression of GDF-15 (GDF-15): inhibited
expression of Myogenin (Myogenin): excellent effect of inhibiting the decrease of expression
expression of Atrogin1 (Atrogin1 [6]): excellent effect of inhibiting the increase of expression
expression level of Atrogin1 in quadriceps (Atrogin1 [7]; [8]): decrease in the expression levels
expression level of Atrogin1 in quadriceps (Atrogin1 [7]; G4 to G6, compared to G3 megestrol 125 mpk oral): excellent effects decreasing the expression levels
